# Columns and labels:
# Stellaria media [1] = test: Herbicidal pre-emergence action (Part 2), 1280 g/ha; type: in vivo; settings: application rate 1280 g/ha, scored visually after about 3 weeks, Table D8
# Outline: (§1)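 Visual percent activity, scored roughly 3 weeks after treatment relative to untreated pots (100% meaning plants died), is reported. Compounds as wettable powders or emulsion concentrates with 0.5% additive were applied to the soil surface over freshly sown seeds at 600 L water/ha.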
# Poa annua [2] = test: as above; type: in vivo; settings: application rate 1280 g/ha, scored visually after about 3 weeks, Table D3
# Outline: as §1
# Abutilon theophrasti [3] = test: as above; type: in vivo; settings: application rate 1280 g/ha, scored visually after about 3 weeks, Table D5
# Outline: as §1
# Matricaria inodora [4] = test: as above; type: in vivo; settings: application rate 1280 g/ha, scored visually after about 3 weeks, Table D7
# Outline: as §1
# Setaria viridis [5] = test: as above; type: in vivo; settings: application rate 1280 g/ha, scored visually after about 3 weeks, Table D4
# Outline: as §1
# Amaranthus retroflexus [6] = test: as above; type: in vivo; settings: application rate 1280 g/ha, scored visually after about 3 weeks, Table D6
# Outline: as §1
# Stellaria media [7] = test: Herbicidal post-emergence action (Part 2), 1280 g/ha; type: in vivo; settings: application rate 1280 g/ha, rated visually after about 3 weeks, Table C7
# Outline: (§2)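 Post-emergence greenhouse test: one-leaf-stage weeds (2–3 wk after sowing, sandy loam) sprayed onto green parts; WP/EC in water + 0.5% additive, 600 L/ha. Visual rating ~3 wk, 0–100% vs untreated.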
# Poa annua [8] = test: as above; type: in vivo; settings: application rate 1280 g/ha, rated visually after about 3 weeks, Table C2
# Outline: as §2
# Abutilon theophrasti [9] = test: as above; type: in vivo; settings: application rate 1280 g/ha, rated visually after about 3 weeks, Table C4
# Outline: as §2
# Echinochloa crus-galli [10] = test: as above; type: in vivo; settings: post-emergence (Part 2), application rate 1280 g/ha, rated visually after about 3 weeks vs untreated controls
# Outline: as §2
# Matricaria inodora [11] = test: as above; type: in vivo; settings: application rate 1280 g/ha, rated visually after about 3 weeks, Table C6
# Outline: as §2
# Setaria viridis [12] = test: as above; type: in vivo; settings: application rate 1280 g/ha, rated visually after about 3 weeks, Table C3
# Outline: as §2
# Amaranthus retroflexus [13] = test: as above; type: in vivo; settings: application rate 1280 g/ha, rated visually after about 3 weeks, Table C5
# Outline: as §2
# Pharbitis purpurea [14] = test: Post-emergence herbicidal action, greenhouse, 320 g/ha; type: in vivo; settings: application rate 320 g/ha, rated visually after about 3 weeks vs untreated controls
# Outline: (§3)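 Plants treated post-emergence at the one-leaf stage, 2 to 3 weeks after sowing in sandy loam, with WP or EC formulations plus 0.5% additive at 320 g/ha. Visual rating about 3 weeks later versus untreated controls (100% = dead, 0% = like control).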
# Stellaria media [15] = test: as above; type: in vivo; settings: application rate 320 g/ha, rated visually after about 3 weeks vs untreated controls
# Outline: as §3
# Abutilon theophrasti [16] = test: as above; type: in vivo; settings: application rate 320 g/ha, rated visually after about 3 weeks vs untreated controls
# Outline: as §3
# Echinochloa crus-galli [17] = test: as above; type: in vivo; settings: application rate 320 g/ha, rated visually after about 3 weeks vs untreated controls
# Outline: as §3
# Polygonum convolvulus [18] = test: as above; type: in vivo; settings: application rate 320 g/ha, rated visually after about 3 weeks vs untreated controls
# Outline: as §3
# Viola tricolor [19] = test: as above; type: in vivo; settings: application rate 320 g/ha, rated visually after about 3 weeks vs untreated controls
# Outline: as §3
# Setaria viridis [20] = test: as above; type: in vivo; settings: application rate 320 g/ha, rated visually after about 3 weeks vs untreated controls
# Outline: as §3
# Alopecurus myosuroides [21] = test: as above; type: in vivo; settings: application rate 320 g/ha, rated visually after about 3 weeks vs untreated controls
# Outline: as §3
# Amaranthus retroflexus [22] = test: as above; type: in vivo; settings: application rate 320 g/ha, rated visually after about 3 weeks vs untreated controls
# Outline: as §3
# Pharbitis purpurea [23] = test: Pre-emergence herbicidal action, greenhouse, 320 g/ha; type: in vivo; settings: application rate 320 g/ha, Table B12
# Outline: (§4)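 Sow seeds in soil-filled pots, cover. Spray compound (WP/EC, aqueous, +0.5% additive) on covering soil. Hold under good growth conditions ~3 wk. Score % effect visually vs untreated.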
# Stellaria media [24] = test: as above; type: in vivo; settings: application rate 320 g/ha, scored visually after about 3 weeks vs untreated controls
# Outline: as §4
# Hordeum murinum = test: as above; type: in vivo; settings: application rate 320 g/ha, Table B14
# Outline: as §4
# Abutilon theophrasti [25] = test: as above; type: in vivo; settings: application rate 320 g/ha, scored visually after about 3 weeks vs untreated controls
# Outline: as §4
# Polygonum convolvulus [26] = test: as above; type: in vivo; settings: application rate 320 g/ha, scored visually after about 3 weeks vs untreated controls
# Outline: as §4
# Viola tricolor [27] = test: as above; type: in vivo; settings: application rate 320 g/ha, Table B8
# Outline: as §4
# Matricaria inodora [28] = test: as above; type: in vivo; settings: application rate 320 g/ha, scored visually after about 3 weeks vs untreated controls
# Outline: as §4
# Veronica persica = test: as above; type: in vivo; settings: application rate 320 g/ha, Table B13
# Outline: as §4
# Setaria viridis [29] = test: as above; type: in vivo; settings: application rate 320 g/ha, Table B11
# Outline: as §4
# Alopecurus myosuroides [30] = test: as above; type: in vivo; settings: application rate 320 g/ha, scored visually after about 3 weeks vs untreated controls
# Outline: as §4
# Amaranthus retroflexus [31] = test: as above; type: in vivo; settings: application rate 320 g/ha, scored visually after about 3 weeks vs untreated controls
# Outline: as §4
# photosystem II (PS II) = target: T1, photosystem II (PS II) (Spinacia oleracea, UniProt P69560); test: Measurement of PS II activity in thylakoid membranes (DCPIP reduction); type: biochemical, spinach; settings: PS II activity in spinach thylakoid membranes, Table E1; read-out: Effect
# T1 construct: the chloroplasts were osmotically ruptured and the thylakoid membranes were then obtained by centrifugation; from tissue; host or cells: fresh spinach leaves; thylakoid membrane preparation from isolated chloroplasts
# Outline: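 Thylakoid membranes from osmotically ruptured spinach chloroplasts in 50 mM phosphate pH 6.8, 10 mM KCl; compounds added from 100 μM DMSO solution (2.5% DMSO final), 120 μM DCPIP final. DCPIP reduction under light tracked as absorbance decrease at 595 nm over 10 min at 22 °C; % inhibition binned, metribuzin as plate standard.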
smiles,measurement,setting,value
CN1CCC(O)N(c2cc(C(C)(C)C)n(C)n2)C1=O (stereo not shown) [I.1-315],Stellaria media,Stellaria media [1],100%
same,Poa Annua,Poa annua [2],90%
same,Abutilon theophrasti,Abutilon theophrasti [3],100%
same,Matricaria inodora,Matricaria inodora [4],100%
same,Setaria viridis,Setaria viridis [5],100%
same,Amaranthus retroflexus,Amaranthus retroflexus [6],100%
same,Stellaria media,Stellaria media [7],100%
same,Poa Annua,Poa annua [8],100%
same,Abutilon theophrasti,Abutilon theophrasti [9],100%
same,Echinochloa crus-galli,Echinochloa crus-galli [10],100%
same,Matricaria inodora,Matricaria inodora [11],90%
same,Setaria viridis,Setaria viridis [12],100%
same,Amaranthus retroflexus,Amaranthus retroflexus [13],100%
"CC(=O)OC1CCN(C)C(=O)N1c1cc(C(C)(C)C)on1 (stereo not shown) [I.2-162, 3-(5-tert-Butyl-1,2-oxazol-3-yl)-1-methyl-2-oxohexahydropyrimidin-4-yl Acetate]",Pharbitis purpurea (efficacy in %),Pharbitis purpurea [14],100%
same,Stellaria media (efficacy in %),Stellaria media [15],100%
same,Abutilon theophrasti (efficacy in %),Abutilon theophrasti [16],100%
same,Echinochloa crus-galli (efficacy in %),Echinochloa crus-galli [17],80%
same,Polygonum convolvulus (efficacy in %),Polygonum convolvulus [18],100%
same,Viola tricolor (efficacy in %),Viola tricolor [19],100%
same,Setaria viridis (efficacy in %),Setaria viridis [20],100%
same,Alopecurus myosuroides (efficacy in %),Alopecurus myosuroides [21],80%
same,Amaranthus retroflexus (efficacy in %),Amaranthus retroflexus [22],100%
same,Pharbitis purpurea (efficacy in %),Pharbitis purpurea [23],100%
same,Stellaria media (efficacy in %),Stellaria media [24],100%
same,Hordeum murinum (efficacy in %),Hordeum murinum,80%
same,Abutilon theophrasti (efficacy in %),Abutilon theophrasti [25],100%
same,Polygonum convolvulus (efficacy in %),Polygonum convolvulus [26],100%
same,Viola tricolor (efficacy in %),Viola tricolor [27],100%
same,Matricaria inodora (efficacy in %),Matricaria inodora [28],100%
same,Veronica persica (efficacy in %),Veronica persica,90%
same,Setaria viridis (efficacy in %),Setaria viridis [29],90%
same,Alopecurus myosuroides (efficacy in %),Alopecurus myosuroides [30],90%
same,Amaranthus retroflexus (efficacy in %),Amaranthus retroflexus [31],100%
same,inhibition at 100 µM,photosystem II (PS II),70 to 90%

# Reference: patent publication US20200390100A1, “SUBSTITUTED N-HETEROCYCLYL- AND N-HETEROARYL-TETRAHYDROPYRIMIDINONES AND THE SALTS THEREOF, AND THE USE OF SAME AS HERBICIDAL ACTIVE SUBSTANCES” (Bayer Aktiengesellschaft, priority 2017, published 2020)
